Data on two compounds can be found in PMC5480290 (Journal of the American Chemical Society, 2016).

The target of one experiment is LBT-PglBCj-Δ1-11 (Campylobacter jejuni subsp. jejuni serotype O:2, UniProt Q0P9C8). Type of experiment: binding.
Experiment [1] addresses T1, LBT-PglBCl-Δ1-12 (Campylobacter lari, UniProt B9KDD4). Type of experiment: binding. The following applies: Tb^3+ relative to LBT-PglB.
Another experiment has as its system PglBCj. Type of experiment: biochemical, Campylobacter jejuni.
Experiment [2] deals with T1, LBT-PglBCl-Δ1-12. In kind it is binding. The following applies: read-out: KD (glycan substrate); LRET titration, UndPPT-Fl from 0.014 to 5 μM, luminescence at 544 nm.

Usually Kd stands for the concentration at which binding is half-saturated.

Take `[Tb+3]` [Tb^3+, terbium]: the “Tb^3+ saturation stoichiometry” value at LBT-PglBCj-Δ1-11 (Tb^3+ relative to LBT-PglB) and on LBT-PglBCl-Δ1-12 [1] was “saturated at one molar equivalent” throughout. Further, the Kd at LBT-PglBCj-Δ1-11 (read-out: Tb^3+ KD, estimated, sensitized luminescence at 544 nm) is 2.3 µM.

With “Und-PP-diNAcBac-GalNAc-GalNAz conjugated to acetylene-545 fluorophore [UndPPT-Fl]”, the “tolerated as glycosyl donor substrate” value in the experiment on PglBCj is “tolerates”. Moreover, the Kd at LBT-PglBCl-Δ1-12 [2] is 0.33 ± 0.07 µM.
